Assay results from patent publication US20070225292A1, “Therapeutic Compounds: Pyridine as Scaffold” (priority 2004, published 2007).

Key:
Human CB1 receptor [1] = target: T1, Human CB1 receptor (Homo sapiens, UniProt P21554); assay: hCB1 receptor binding (3H-CP55,940 displacement); settings: human CB1 membranes, Ki=IC50/(1+[rad]/Kd)
T1 construct: purchased Receptor Biology
Description: Human CB1 receptor from Receptor Biology (hCB1) or human CB2 receptor from BioSignal (hCB2) membranes are thawed at 37° C., passed 3 times through a 25-gauge blunt-end needle, diluted in the cannabinoid binding buffer (50 mM Tris, 2.5 mM EDTA, 5 mM MgCl2, and 0.5 mg/mL BSA fatty acid free, pH 7.4) and aliquots containing the appropriate amount of protein are distributed in 96-well plates. The IC50 of the compounds of the invention at hCB1 and hCB2 are evaluated from 10-point dose-response curves done with ^3H-CP55,940 at 20000 to 25000 dpm per well (0.17-0.21 nM) in a final volume of 300 μl. The total and non-specific binding are determined in the absence and presence of 0.2 μM of HU210 respectively. The plates are vortexed and incubated for 60 minutes at room temperature, filtered through Unifilters GF/B (presoaked in 0.1% polyethyleneimine) with the Tomtec or Packard harvester using 3 mL of wash buffer (50 mM Tris, 5 mM MgCl2, 0.5 mg BSA pH 7.0). The filters are dried for 1 hour at 55° C. The radioactivity (cpm) is counted in a TopCount (Packard) after adding 65 μl/well of MS-20 scintillation liquid.
Based on the above assays, the dissociation constant (Ki) for a particular compound of the invention towards a particular receptor is determined using the following equation: Ki=IC50/(1+[rad]/Kd),
Wherein IC50 is the concentration of the compound of the invention at which 50% displacement has been observed;
[rad] is a standard or reference radioactive ligand concentration at that moment; and
Kd is the dissociation constant of the radioactive ligand towards the particular receptor.

Human CB1 receptor [2] = target: T1, Human CB1 receptor; assay: hCB1 GTPγS binding; assay type: biochemical; settings: human CB1 membranes, GTPg35S binding; for Emax: maximal stimulated binding with 10 μM Win 55,212-2; for EC50: read-out: EC5O (hCB1)
Description: Human CB1 receptor from Receptor Biology (hCB1) or human CB2 receptor membranes (BioSignal) are thawed at 37° C., passed 3 times through a 25-gauge blunt-end needle and diluted in the GTPγS binding buffer (50 mM Hepes, 20 mM NaOH, 100 mM NaCl, 1 mM EDTA, 5 mM MgCl2, pH 7.4, 0.1% BSA). The EC50 and Emax of the compounds of the invention are evaluated from 10-point dose-response curves done in 300 μl with the appropriate amount of membrane protein and 100000-130000 dpm of GTPg^35S per well (0.11-0.14 nM). The basal and maximal stimulated binding is determined in absence and presence of 1 μM (hCB2) or 10 μM (hCB1) Win 55,212-2 respectively. The membranes are pre-incubated for 5 minutes with 56.25 μM (hCB2) or […] (hCB1) GDP prior to distribution in plates (15 μM (hCB2) or 30 μM (hCB1) GDP final). The plates are vortexed and incubated for 60 minutes at room temperature, filtered on Unifilters GF/B (presoaked in water) with the Tomtec or Packard harvester using 3 ml of wash buffer (50 mM Tris, 5 mM MgCl2, 50 mM NaCl, pH 7.0). The filters are dried for 1 hour at 55° C. The radioactivity (cpm) is counted in a TopCount (Packard) after adding 65 μl/well of MS-20 scintillation liquid. Antagonist reversal studies are done in the same way except that (a) an agonist dose-response curve is done in the presence of a constant concentration of antagonist, or (b) an antagonist dose-response curve is done in the presence of a constant concentration of agonist.

T1 sequence (P21554 whole entry): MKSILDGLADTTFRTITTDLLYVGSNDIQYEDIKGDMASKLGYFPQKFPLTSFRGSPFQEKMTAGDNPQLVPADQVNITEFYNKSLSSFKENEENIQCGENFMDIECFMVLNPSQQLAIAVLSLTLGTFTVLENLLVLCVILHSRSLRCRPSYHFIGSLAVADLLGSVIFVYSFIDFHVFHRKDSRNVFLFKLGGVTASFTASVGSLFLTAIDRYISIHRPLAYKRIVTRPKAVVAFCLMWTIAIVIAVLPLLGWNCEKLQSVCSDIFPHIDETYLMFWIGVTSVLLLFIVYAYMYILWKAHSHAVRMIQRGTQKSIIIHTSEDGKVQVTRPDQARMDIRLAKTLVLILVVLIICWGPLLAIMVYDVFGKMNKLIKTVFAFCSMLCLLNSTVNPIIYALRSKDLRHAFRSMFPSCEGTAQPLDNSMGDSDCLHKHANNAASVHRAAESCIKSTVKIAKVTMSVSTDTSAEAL

Question: `O=C(NCC1CCCCC1)c1ncccc1NC(=O)c1ccc(N2CCC2)c2ccccc12` [Example 171, 3-[(4-Azetidin-1-yl-1-naphthoyl)amino]-N-(cyclohexylmethyl)pyridine-2-carboxamide] was tested. Which Ki (Human CB1 receptor [1]) did it give?
Answer: 57 nM

Question: And the Emax (Human CB1 receptor [2])?
Answer: 71%

Question: What about the EC50 (Human CB1 receptor [2]) of the same molecule?
Answer: 217 nM

Question: Which results are given for `O=C(NCC1CCCC1)c1ncccc1NC(=O)c1cccc2ccccc12` [Example 13, N-(Cyclopentylmethyl)-3-[(1-naphthalenylcarbonyl)amino]-2-pyridinecarboxamide]?
Answer: Ki (Human CB1 receptor [1]): 12 nM; Emax (Human CB1 receptor [2]): 105%; EC50 (Human CB1 receptor [2]): 46 nM

Question: `Cc1ccc(C(=O)Nc2cccnc2C(=O)NCc2ccccn2)c2ccccc12` [Example 80, 3-(4-Methyl 1-naphthoylamino)-N-(pyridin-2-ylmethyl)pyridine-2-carboxamide] was tested. Which Ki (Human CB1 receptor [1]) did it give?
Answer: 221 nM

Question: And the Emax (Human CB1 receptor [2])?
Answer: 75%

Question: What about the EC50 (Human CB1 receptor [2]) of the same molecule?
Answer: 1230 nM

Question: Which Ki (Human CB1 receptor [1]) does the source give for `O=C(NCC1CCOCC1)c1nccnc1NC(=O)c1cccc2ccccc12` [Example 43, 3-(1-Naphthoylamino)-N-(tetrahydro-2H-pyran-4-ylmethyl)pyrazine-2-carboxamide] here?
Answer: 181 nM

Question: What about the Emax (Human CB1 receptor [2]) of the same molecule?
Answer: 112%

Question: And the EC50 (Human CB1 receptor [2])?
Answer: 907 nM
